Test results as given in patent publication US20250302832A1, “PYRAZINE DERIVATIVES AND USES THEREOF” (FOGHORN THERAPEUTICS INC., priority 2022, published 2025).

How the values were obtained:
HiBit-BRM fusion protein = target: T1, HiBit-BRM fusion protein (Homo sapiens, UniProt P51531); assay: HiBiT-BRM cell-based degradation assay (Nano-Glo HiBiT lytic detection, 24 h); conditions: HeLa cell line expressing HiBiT-BRM; for DC50: read-out: BRM HiBit Degradation IC50
T1 construct: expressed in transfected cells
Procedure, shortened: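 Luminescence from LgBiT complementation quantified remaining HiBiT-BRM in stably expressing HeLa cells after 24 h compound exposure (top final dose 30 μM, 3-fold, 10 points, duplicate). Degradation expressed as percent relative to DMSO and a 2 μM reference degrader.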

[1] = target: T2, HiBit-BRG1 fusion protein (Homo sapiens, UniProt P51532); assay: HiBiT-BRG1 cell-based degradation assay (Nano-Glo HiBiT lytic detection, 24 h); conditions: HeLa cell line expressing HiBit-BRG1 and LgBit; for Dmax: read-out: BRG1 HiBit Degradation Maximum (%); for DC50: read-out: BRMG1 HiBit Degradation IC50
T2 construct: expressed in transfected cells
Procedure, shortened: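 Luminescence from HiBiT/LgBiT complementation after lytic detection reagent was read following 24 h compound exposure of HeLa cells stably carrying HiBiT-BRG1 plus LgBiT (5000 cells/well). Signal scaled to % degradation using DMSO-treated cells as 0% and cells given 2 μM known BRM/BRG1 degrader as 100%.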

T1 sequence (P51531 whole entry, the tested form may be a part): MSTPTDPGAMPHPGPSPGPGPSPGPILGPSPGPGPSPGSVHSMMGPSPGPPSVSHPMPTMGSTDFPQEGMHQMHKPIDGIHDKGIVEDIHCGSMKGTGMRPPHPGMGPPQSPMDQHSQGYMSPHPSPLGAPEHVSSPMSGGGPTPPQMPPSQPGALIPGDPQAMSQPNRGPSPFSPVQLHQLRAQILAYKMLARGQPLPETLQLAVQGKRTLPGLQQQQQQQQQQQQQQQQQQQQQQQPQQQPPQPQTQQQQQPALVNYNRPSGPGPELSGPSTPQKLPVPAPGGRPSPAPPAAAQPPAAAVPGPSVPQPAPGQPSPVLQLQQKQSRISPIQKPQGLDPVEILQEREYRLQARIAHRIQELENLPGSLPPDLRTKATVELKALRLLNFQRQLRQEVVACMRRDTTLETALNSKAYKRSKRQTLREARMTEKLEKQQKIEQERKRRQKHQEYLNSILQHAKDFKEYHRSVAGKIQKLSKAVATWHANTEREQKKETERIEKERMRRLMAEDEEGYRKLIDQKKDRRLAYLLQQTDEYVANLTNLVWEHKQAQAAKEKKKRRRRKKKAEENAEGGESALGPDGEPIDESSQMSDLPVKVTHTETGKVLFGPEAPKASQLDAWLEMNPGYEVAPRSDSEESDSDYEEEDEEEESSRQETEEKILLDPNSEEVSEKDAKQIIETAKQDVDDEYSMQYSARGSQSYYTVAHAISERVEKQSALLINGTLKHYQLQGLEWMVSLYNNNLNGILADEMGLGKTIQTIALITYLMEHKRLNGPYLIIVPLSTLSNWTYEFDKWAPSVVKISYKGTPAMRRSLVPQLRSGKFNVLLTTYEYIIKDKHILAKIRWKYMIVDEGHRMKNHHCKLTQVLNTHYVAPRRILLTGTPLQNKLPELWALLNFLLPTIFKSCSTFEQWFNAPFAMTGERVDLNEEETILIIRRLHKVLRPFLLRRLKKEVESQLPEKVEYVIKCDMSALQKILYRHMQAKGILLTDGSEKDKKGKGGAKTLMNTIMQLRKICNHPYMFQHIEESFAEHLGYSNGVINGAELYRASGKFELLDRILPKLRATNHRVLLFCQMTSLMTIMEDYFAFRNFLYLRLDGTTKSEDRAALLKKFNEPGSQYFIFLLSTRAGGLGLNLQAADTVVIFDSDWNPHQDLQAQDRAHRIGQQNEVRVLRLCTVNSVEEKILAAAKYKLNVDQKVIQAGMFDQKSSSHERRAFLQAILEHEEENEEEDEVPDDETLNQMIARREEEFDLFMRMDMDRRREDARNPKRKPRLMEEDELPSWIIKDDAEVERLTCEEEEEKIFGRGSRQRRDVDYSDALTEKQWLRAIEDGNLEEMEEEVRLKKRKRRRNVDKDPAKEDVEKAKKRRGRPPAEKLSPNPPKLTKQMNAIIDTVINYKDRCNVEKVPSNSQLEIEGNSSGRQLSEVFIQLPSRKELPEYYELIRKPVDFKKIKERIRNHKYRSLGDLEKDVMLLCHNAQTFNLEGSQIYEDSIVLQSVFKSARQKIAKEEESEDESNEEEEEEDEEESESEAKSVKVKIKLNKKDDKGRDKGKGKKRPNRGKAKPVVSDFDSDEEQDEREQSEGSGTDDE
T2 sequence (P51532 whole entry, the tested form may be a part): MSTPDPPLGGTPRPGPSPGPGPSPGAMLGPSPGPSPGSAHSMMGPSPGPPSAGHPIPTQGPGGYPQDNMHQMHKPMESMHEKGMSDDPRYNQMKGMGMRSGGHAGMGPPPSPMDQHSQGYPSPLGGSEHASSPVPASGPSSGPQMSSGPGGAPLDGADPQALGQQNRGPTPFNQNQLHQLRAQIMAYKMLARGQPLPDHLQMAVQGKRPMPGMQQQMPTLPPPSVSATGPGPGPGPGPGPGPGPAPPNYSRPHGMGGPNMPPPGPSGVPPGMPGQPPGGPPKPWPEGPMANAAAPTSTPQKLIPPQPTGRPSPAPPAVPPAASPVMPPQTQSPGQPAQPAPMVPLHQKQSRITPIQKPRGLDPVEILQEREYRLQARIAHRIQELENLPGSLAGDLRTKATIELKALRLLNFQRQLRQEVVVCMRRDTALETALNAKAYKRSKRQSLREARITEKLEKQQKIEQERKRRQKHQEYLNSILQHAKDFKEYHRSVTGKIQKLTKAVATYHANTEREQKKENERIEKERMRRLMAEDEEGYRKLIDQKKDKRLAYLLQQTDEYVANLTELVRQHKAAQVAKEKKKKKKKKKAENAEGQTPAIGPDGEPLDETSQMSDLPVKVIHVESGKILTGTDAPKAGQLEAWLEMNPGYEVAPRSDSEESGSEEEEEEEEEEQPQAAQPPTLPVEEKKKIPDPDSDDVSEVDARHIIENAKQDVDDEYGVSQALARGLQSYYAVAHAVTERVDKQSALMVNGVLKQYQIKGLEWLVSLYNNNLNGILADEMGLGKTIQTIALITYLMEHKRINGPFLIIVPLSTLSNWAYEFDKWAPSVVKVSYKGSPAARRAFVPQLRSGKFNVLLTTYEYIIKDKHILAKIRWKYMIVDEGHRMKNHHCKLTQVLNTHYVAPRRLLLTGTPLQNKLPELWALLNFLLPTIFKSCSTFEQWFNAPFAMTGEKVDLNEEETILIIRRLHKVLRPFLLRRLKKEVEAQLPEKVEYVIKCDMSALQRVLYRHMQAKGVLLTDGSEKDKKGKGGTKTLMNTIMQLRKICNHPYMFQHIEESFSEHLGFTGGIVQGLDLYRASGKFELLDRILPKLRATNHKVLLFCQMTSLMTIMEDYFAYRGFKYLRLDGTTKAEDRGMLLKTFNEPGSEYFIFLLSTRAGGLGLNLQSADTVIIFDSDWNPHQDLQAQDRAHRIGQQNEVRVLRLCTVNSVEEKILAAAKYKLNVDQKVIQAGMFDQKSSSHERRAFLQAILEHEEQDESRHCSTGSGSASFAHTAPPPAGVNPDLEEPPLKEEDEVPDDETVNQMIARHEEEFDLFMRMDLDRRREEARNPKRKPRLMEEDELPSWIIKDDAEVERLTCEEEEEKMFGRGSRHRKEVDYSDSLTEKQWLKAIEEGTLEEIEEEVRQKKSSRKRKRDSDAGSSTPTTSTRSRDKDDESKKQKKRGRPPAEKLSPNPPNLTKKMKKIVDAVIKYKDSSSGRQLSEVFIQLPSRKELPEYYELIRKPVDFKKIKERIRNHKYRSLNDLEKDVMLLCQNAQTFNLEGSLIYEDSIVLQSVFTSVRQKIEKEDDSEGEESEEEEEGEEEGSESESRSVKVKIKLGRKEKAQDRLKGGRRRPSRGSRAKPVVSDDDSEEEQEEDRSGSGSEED

| SMILES | DC50 (HiBit-BRM fusion protein) | Dmax [1] | DC50 [1] | BRM HiBit Degradation Maximum (%) (HiBit-BRM fusion protein) |
| --- | --- | --- | --- | --- |
| Cc1ncsc1-c1ccc([C@H](C)NC(=O)[C@@H]2C[C@@H](O)CN2C(=O)[C@@H](c2cc(N3CC4(CC(c5cc6nnc(-c7ccccc7O)cc6n5C)C4)C3)no2)C(C)C)cc1 [Compound 67, (2S,4R)-4-hydroxy-1-((R)-2-(3-(6-(3-(2-hydroxyphenyl)-5-methyl-5H-pyrrolo[3,2-c]pyridazin-6-yl)-2-azaspiro[3.3]heptan-2-yl)isoxazol-5-yl)-3-methylbutanoyl)-N-((S)-1-(4-(4-methylthiazol-5-yl)phenyl)ethyl)pyrrolidine-2-carboxamide] | < 10 nM | > 50% | > 10 nM | A (“A” indicates maximum degradation ≥75%) |
| Cc1ncsc1-c1ccc([C@H](C)NC(=O)[C@@H]2C[C@@H](O)CN2C(=O)[C@@H](c2cc(-c3cnc(N4CC[C@@H](c5cc6nnc(-c7cccc(Cl)c7O)cc6n5C5CC5)C4)nc3)no2)C(C)C)cc1 [Compound 69, (2S,4R)-1-((R)-2-(3-(2-((R)-3-(3-(3-chloro-2-hydroxyphenyl)-5-cyclopropyl-5H-pyrrolo[3,2-c]pyridazin-6-yl)pyrrolidin-1-yl)pyrimidin-5-yl)isoxazol-5-yl)-3-methylbutanoyl)-4-hydroxy-N-((S)-1-(4-(4-methylthiazol-5-yl)phenyl)ethyl)pyrrolidine-2-carboxamide] | < 10 nM | < 50% |  | A (“A” indicates maximum degradation ≥75%) |
| Cc1ncsc1-c1ccc([C@H](C)NC(=O)[C@@H]2C[C@@H](O)CN2C(=O)[C@@H](c2cc(-c3cnc(N4CC[C@@H](c5cc6nnc(-c7cc(F)cc(Cl)c7O)cc6n5C5CC5)C4)nc3)no2)C(C)C)cc1 [Compound 70, (2S,4R)-1-((R)-2-(3-(2-((R)-3-(3-(3-chloro-5-fluoro-2-hydroxyphenyl)-5-cyclopropyl-5H-pyrrolo[3,2-c]pyridazin-6-yl)pyrrolidin-1-yl)pyrimidin-5-yl)isoxazol-5-yl)-3-methylbutanoyl)-4-hydroxy-N-((S)-1-(4-(4-methylthiazol-5-yl)phenyl)ethyl)pyrrolidine-2-carboxamide] | < 10 nM | < 50% |  | A (“A” indicates maximum degradation ≥75%) |
| Cc1ncsc1-c1ccc([C@H](C)NC(=O)[C@@H]2C[C@@H](O)CN2C(=O)[C@H](C(C)C)n2cc(-c3cnc(N4CC[C@@H](c5cc6nnc(-c7ccccc7O)cc6n5C5CC5)C4)nc3)nn2)cc1 [Compound 71, (2S,4R)-1-((S)-2-(4-(2-((R)-3-(5-cyclopropyl-3-(2-hydroxyphenyl)-5H-pyrrolo[3,2-c]pyridazin-6-yl)pyrrolidin-1-yl)pyrimidin-5-yl)-1H-1,2,3-triazol-1-yl)-3-methylbutanoyl)-4-hydroxy-N-((S)-1-(4-(4-methylthiazol-5-yl)phenyl)ethyl)pyrrolidine-2-carboxamide] | < 10 nM | > 75% | < 10 nM | A (“A” indicates maximum degradation ≥75%) |
| Cc1ncsc1-c1ccc([C@H](C)NC(=O)[C@@H]2C[C@@H](O)CN2C(=O)[C@@H](C(C)C)n2cc(-c3cnc(N4CC[C@@H](c5cc6nnc(-c7ccccc7O)cc6n5C5CC5)C4)nc3)nn2)cc1 [Compound 72, (2S,4R)-1-((R)-2-(4-(2-((R)-3-(5-cyclopropyl-3-(2-hydroxyphenyl)-5H-pyrrolo[3,2-c]pyridazin-6-yl)pyrrolidin-1-yl)pyrimidin-5-yl)-1H-1,2,3-triazol-1-yl)-3-methylbutanoyl)-4-hydroxy-N-((S)-1-(4-(4-methylthiazol-5-yl)phenyl)ethyl)pyrrolidine-2-carboxamide] | < 10 nM | < 50% |  | A (“A” indicates maximum degradation ≥75%) |
| Cc1ncsc1-c1ccc([C@H](C)NC(=O)[C@@H]2C[C@@H](O)CN2C(=O)[C@@H](c2cc(-c3cnc(N4CC[C@H](c5cc6nnc(-c7cc(F)cc(Cl)c7O)cc6n5C5CC5)C4)nc3)no2)C(C)C)cc1 [Compound 73, (2S,4R)-1-((R)-2-(3-(2-((S)-3-(3-(3-chloro-5-fluoro-2-hydroxyphenyl)-5-cyclopropyl-5H-pyrrolo[3,2-c]pyridazin-6-yl)pyrrolidin-1-yl)pyrimidin-5-yl)isoxazol-5-yl)-3-methylbutanoyl)-4-hydroxy-N-((S)-1-(4-(4-methylthiazol-5-yl)phenyl)ethyl)pyrrolidine-2-carboxamide] | > 10 nM | > 50% | > 10 nM | B (“B” indicates maximum degradation ≥50%) |
| Cc1ncsc1-c1ccc([C@H](C)NC(=O)[C@@H]2C[C@@H](O)CN2C(=O)[C@H](C(C)C)n2cc(-c3cnc(N4CC[C@H](c5cc6nnc(-c7ccccc7O)cc6n5C5CC5)C4)nc3)nn2)cc1 [Compound 74, (2S,4R)-1-((S)-2-(4-(2-((S)-3-(5-cyclopropyl-3-(2-hydroxyphenyl)-5H-pyrrolo[3,2-c]pyridazin-6-yl)pyrrolidin-1-yl)pyrimidin-5-yl)-1H-1,2,3-triazol-1-yl)-3-methylbutanoyl)-4-hydroxy-N—((S)-1-(4-(4-methylthiazol-5-yl)phenyl)ethyl)pyrrolidine-2-carboxamide] | < 10 nM | > 50% | < 10 nM | A (“A” indicates maximum degradation ≥75%) |

The next lines start with results.

| DC50 (HiBit-BRM fusion protein) | Dmax [1] | DC50 [1] | SMILES | BRM HiBit Degradation Maximum (%) (HiBit-BRM fusion protein) |
| --- | --- | --- | --- | --- |
| < 10 nM | < 50% |  | Cc1ncsc1-c1ccc([C@H](C)NC(=O)[C@@H]2C[C@@H](O)CN2C(=O)[C@@H](c2cc(N3CC4(CC(c5cc6nnc(-c7ccccc7O)cc6n5C5(CF)CC5)C4)C3)no2)C(C)C)cc1 [Compound 68, (2S,4R)-1-((R)-2-(3-(6-(5-(1-(fluoromethyl)cyclopropyl)-3-(2-hydroxyphenyl)-5H-pyrrolo[3,2-c]pyridazin-6-yl)-2-azaspiro[3.3]heptan-2-yl)isoxazol-5-yl)-3-methylbutanoyl)-4-hydroxy-N-((S)-1-(4-(4-methylthiazol-5-yl)phenyl)ethyl)pyrrolidine-2-carboxamide] | A (“A” indicates maximum degradation ≥75%) |
| > 10 nM | < 50% |  | Cc1ncsc1-c1ccc([C@H](C)NC(=O)[C@@H]2C[C@@H](O)CN2C(=O)[C@@H](C(C)C)n2cc(-c3cnc(N4CC[C@H](c5cc6nnc(-c7ccccc7O)cc6n5C5CC5)C4)nc3)nn2)cc1 [Compound 75, (2S,4R)-1-((R)-2-(4-(2-((S)-3-(5-cyclopropyl-3-(2-hydroxyphenyl)-5H-pyrrolo[3,2-c]pyridazin-6-yl)pyrrolidin-1-yl)pyrimidin-5-yl)-1H-1,2,3-triazol-1-yl)-3-methylbutanoyl)-4-hydroxy-N—((S)-1-(4-(4-methylthiazol-5-yl)phenyl)ethyl)pyrrolidine-2-carboxamide] | A (“A” indicates maximum degradation ≥75%) |
| < 10 nM | < 50% |  | Cc1ncsc1-c1ccc([C@H](C)NC(=O)[C@@H]2C[C@@H](O)CN2C(=O)[C@@H](c2cc(N3CCC(c4cc5nnc(-c6ccccc6O)cc5n4C4CC4)CC3)no2)C(C)C)cc1 [Compound 76, (2S,4R)-1-((R)-2-(3-(4-(5-cyclopropyl-3-(2-hydroxyphenyl)-5H-pyrrolo[3,2-c]pyridazin-6-yl)piperidin-1-yl)isoxazol-5-yl)-3-methylbutanoyl)-4-hydroxy-N-((S)-1-(4-(4-methylthiazol-5-yl)phenyl)ethyl)pyrrolidine-2-carboxamide] | A (“A” indicates maximum degradation ≥75%) |
